Several values for one entry are separate records, joined by “and”; a condition that tells them apart may be missing. Equal values may be shown once.
Columns and labels:
[1] = system: C57BL/6N mice; test: Hepatic triglyceride (TG enzymatic assay kit); format: in vivo; conditions: for Hepatic TG: individual mice
Protocol: Male C57BL/6N mice (8 wk of age) were purchased from Beijing Vital River Laboratory Inc. and acclimated to the environment for 2 wk before they were used for experiments. The environment was maintained at 22°C, in a 12-h light/dark cycle with 50%–60% relative humidity and fed standard chow diets. Because the male mice are more sensitive to metabolic disease than female mice and the estrous cycle of female mice may induce variability to the metabolic phenotypes,[50] only male mice were used in this study. Animals were randomly assigned to control or TPHP treatment groups (five mice per group). Mice were exposed to corn oil (control) purchased from Sigma-Aldrich (C8267) or TPHP (dissolved in corn oil) at 10mg/kg or 50mg/kg body weight (BW) by daily oral gavage for 35 d. The administered volume was 5mL/kg BW. The TPHP corn oil solutions for administration were prepared by dissolving the TPHP in corn oil, and the solutions were stored at −20°C and freshly prepared each week. BW was measured every other day during the dosing period. At the end of experiments, the mice were anesthetized with isoflurane, then blood was collected from the retro-orbital sinus via orbital puncture, and then the mice were euthanized by cervical dislocation. The liver was isolated, weighted, and divided into three fractions: one fraction was fixed with 4% neutral-buffered formalin for Oil Red staining; another fraction was frozen in liquid nitrogen and stored at −80°C for the BA targeted analysis, lipidomic analysis, and qPCR analysis; the remaining fraction was embedded with 3% carboxymethylcellulose (CMC) for MSI analysis. The ileum was also isolated, weighted, and stored at −80°C for the BA targeted analysis and qRT-PCR analysis. […]
The TG level in the liver was determined using a triglyceride enzymatic assay kit (Applygen). […] The total BA level in the liver was determined using a Total Bile Acid (TBA) Colorimetric Assay Kit (Elabscience). […] Both the TG and TBA results were normalized by the protein concentration determined by bicinchoninic acid (BCA) method using a BCA kit (Applygen).

[2] = molecular target: T1, human FXR-LBD (6His-FXR-LBD) (Homo sapiens, UniProt Q96RI1); test: Surface plasmon resonance (SPR) analysis; format: binding
T1 construct: human FXR (residues 243–472) was expressed and purified as an amino-terminal 6His fusion protein; made in house; host or cells: E. coli BL21(DE3)
T1 sequence (Q96RI1 243-472 isoform Q96RI1-2): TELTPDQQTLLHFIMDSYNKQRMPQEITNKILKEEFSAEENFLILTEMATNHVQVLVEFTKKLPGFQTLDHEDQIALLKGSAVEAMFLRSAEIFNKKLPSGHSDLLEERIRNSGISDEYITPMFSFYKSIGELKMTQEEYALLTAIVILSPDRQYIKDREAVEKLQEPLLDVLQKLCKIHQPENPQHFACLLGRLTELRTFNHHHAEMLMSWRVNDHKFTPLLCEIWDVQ
Protocol: . First, 40μg/mL purified 6His-FXR-LBD protein was immobilized on a CM5 sensor chip (29149603; Cytiva) by amine coupling reaction. In detail, the carboxymethyl dextran surface of the CM5 sensor chip was activated by injecting a 1:1 mixture of 0.4M 1-ethyl-3-(3-dimethylaminopropyl)-carbodiimide (EDC) and 0.1M N-hydroxysuccinimide (NHS) for 7 min, then the 6His-FXR-LBD protein was injected and immobilized on the activated surface for 5 min, and subsequently the excess activated groups on the surface were deactivated by 1.0M ethanolamine (pH 8.5). Then, seven different concentrations of compounds (including 3.125μM , 6.25μM , 12.5μM , 25μM , 50μM , 100μM , and 200μM ) were prepared with HBS-EP buffer [ 10 mM HEPES, 150 mM NaCl, 3 mM EDTA, 0.005% (v/v) surfactant P20, pH 7.4], and the final DMSO concentration was adjusted to 2%. The samples were injected into the chip at a flow rate of 30μL/min for 60 s, followed by dissociation for 120 s at 25°C. One of the flow cells on the chip without FXR-LBD protein was used as a negative control. The responses were recorded during the experiment, and the sensorgrams were obtained by subtracting the binding response of the negative control. The equilibrium dissociation constant (KD) was determined by steady-state fitting mode with Biacore T200 Evaluation Software (version 3.2; Cytiva).

[3] = system: FXR target genes and ceramide synthesis genes in ileum; test: qPCR of genes in mouse ileum; format: in vivo, C57BL/6N mice
Protocol: Male C57BL/6N mice (8 wk of age) were purchased from Beijing Vital River Laboratory Inc. and acclimated to the environment for 2 wk before they were used for experiments. The environment was maintained at 22°C, in a 12-h light/dark cycle with 50%–60% relative humidity and fed standard chow diets. Because the male mice are more sensitive to metabolic disease than female mice and the estrous cycle of female mice may induce variability to the metabolic phenotypes,[50] only male mice were used in this study. Animals were randomly assigned to control or TPHP treatment groups (five mice per group). Mice were exposed to corn oil (control) purchased from Sigma-Aldrich (C8267) or TPHP (dissolved in corn oil) at 10mg/kg or 50mg/kg body weight (BW) by daily oral gavage for 35 d. The administered volume was 5mL/kg BW. The TPHP corn oil solutions for administration were prepared by dissolving the TPHP in corn oil, and the solutions were stored at −20°C and freshly prepared each week. BW was measured every other day during the dosing period. At the end of experiments, the mice were anesthetized with isoflurane, then blood was collected from the retro-orbital sinus via orbital puncture, and then the mice were euthanized by cervical dislocation. The liver was isolated, weighted, and divided into three fractions: one fraction was fixed with 4% neutral-buffered formalin for Oil Red staining; another fraction was frozen in liquid nitrogen and stored at −80°C for the BA targeted analysis, lipidomic analysis, and qPCR analysis; the remaining fraction was embedded with 3% carboxymethylcellulose (CMC) for MSI analysis. The ileum was also isolated, weighted, and stored at −80°C for the BA targeted analysis and qRT-PCR analysis. Cecal contents were collected from the cecum of mice for the 16S rRNA gene sequencing analysis. Animal study protocols were approved by the Animal Care and Use Committee of Peking University (approval number: Urban-WanY-1).
Total RNA was extracted from cells or mice tissues (liver and ileum) using the Total RNA kit (Tiangen Biotech), and concentration and quality of the RNA were determined using a SMA4000 Nanodrop spectrophotometer (Merinton). Then, the RNA was reverse transcribed into cDNA by HiScript III RT SuperMix for qPCR (Vazyme). In addition, qPCR was performed in the Mx3005P real-time PCR system (Agilent Technologies) with the ChamQ SYBR qPCR Master Mix Kit (Vazyme). Reactions were carried out for 5 min at 95°C, followed by 40 cycles of two-step PCR for 10 s at 95°C and 30 s at 60°C. The relative RNA expression levels of the target genes were normalized to GAPDH using the 2^−ΔΔCt method.

## O=P(Oc1ccccc1)(Oc1ccccc1)Oc1ccccc1 [TPHP, triphenyl phosphate]
[1]; TPHP exposure groups
  Hepatic TG concentrations vs control group (in words): significantly higher
[1]; TPHP-H: 50 mg/kg daily oral gavage 35 d
  Hepatic TG: 731.21 μmol/g prot and 811.79 μmol/g prot and 765.68 μmol/g prot
[1]; TPHP-L: 10 mg/kg daily oral gavage 35 d
  Hepatic TG: 784.11 μmol/g prot and 752.79 μmol/g prot and 725.51 μmol/g prot
[2]; 3.13 μM TPHP
  Response (RU): 1.43 RU
[2]; 6.25 μM TPHP
  Response (RU): 1.99 RU
[2]; 12.5 μM TPHP
  Response (RU): 3.33 RU
[2]; 25 μM TPHP
  Response (RU): 6.18 RU
[2]; 50 μM TPHP
  Response (RU): 11.56 RU
[2]; 100 μM TPHP
  Response (RU): 20.62 RU
[2]; 200 μM TPHP
  Response (RU): 25.20 RU
[3]; TPHP-H: 50 mg/kg, 35 d
  Relative mRNA expression of Asbt in ileum: 1.65 fold changes and 1.26 fold changes and 1.68 fold changes
  Relative mRNA expression of Cers2 in ileum: 0.89 fold changes and 1.24 fold changes and 1.27 fold changes
  Relative mRNA expression of Cers4 in ileum: 1.11 fold changes and 0.99 fold changes and 1.05 fold changes
  Relative mRNA expression of Cers6 in ileum: 0.73 fold changes and 1.06 fold changes and 0.97 fold changes
  Relative mRNA expression of Degs1 in ileum: 0.95 fold changes and 0.99 fold changes and 1.02 fold changes
  Relative mRNA expression of Degs2 in ileum: 1.14 fold changes and 1.06 fold changes and 1.21 fold changes
  Relative mRNA expression of Ibabp in ileum: 0.78 fold changes and 0.85 fold changes and 0.92 fold changes
  Relative mRNA expression of Ostα in ileum: 0.84 fold changes and 0.68 fold changes and 0.79 fold changes
  Relative mRNA expression of Shp in ileum: 0.10 fold changes and 0.18 fold changes and 0.19 fold changes
  Relative mRNA expression of Smpd2 in ileum: 1.21 fold changes and 1.23 fold changes and 0.91 fold changes
  Relative mRNA expression of Smpd3 in ileum: 0.99 fold changes and 0.93 fold changes and 1.32 fold changes
  Relative mRNA expression of Smpd4 in ileum: 0.86 fold changes and 0.81 fold changes and 0.93 fold changes
  Relative mRNA expression of Sptlc1 in ileum: 1.12 fold changes and 0.98 fold changes and 0.80 fold changes
  Relative mRNA expression of Sptlc2 in ileum: 1.09 fold changes and 1.01 fold changes and 0.85 fold changes
[3]; TPHP-L: 10 mg/kg, 35 d
  Relative mRNA expression of Asbt in ileum: 1.43 fold changes and 1.04 fold changes and 1.42 fold changes
  Relative mRNA expression of Cers2 in ileum: 1.06 fold changes and 1.32 fold changes and 1.08 fold changes
  Relative mRNA expression of Cers4 in ileum: 1.04 fold changes and 1.11 fold changes and 1.40 fold changes
  Relative mRNA expression of Cers6 in ileum: 0.77 fold changes and 1.22 fold changes and 1.15 fold changes
  Relative mRNA expression of Degs1 in ileum: 1.06 fold changes and 1.19 fold changes and 1.18 fold changes
  Relative mRNA expression of Degs2 in ileum: 1.13 fold changes and 0.96 fold changes and 1.41 fold changes
  Relative mRNA expression of Fgf15 in ileum: 0.80 fold changes and 0.54 fold changes and 0.50 fold changes
  Relative mRNA expression of Ibabp in ileum: 0.79 fold changes and 0.87 fold changes and 0.75 fold changes
  Relative mRNA expression of Ostα in ileum: 0.81 fold changes and 0.96 fold changes and 0.82 fold changes
  Relative mRNA expression of Shp in ileum: 0.33 fold changes and 0.38 fold changes and 0.36 fold changes
  Relative mRNA expression of Smpd2 in ileum: 1.01 fold changes and 1.00 fold changes and 1.07 fold changes
  Relative mRNA expression of Smpd3 in ileum: 1.11 fold changes and 1.07 fold changes and 1.10 fold changes
  Relative mRNA expression of Smpd4 in ileum: 0.84 fold changes and 0.96 fold changes
  Relative mRNA expression of Sptlc1 in ileum: 0.87 fold changes and 1.15 fold changes and 0.75 fold changes
  Relative mRNA expression of Sptlc2 in ileum: 0.89 fold changes and 1.15 fold changes and 1.13 fold changes
[3]; after TPHP exposure
  Expression of ceramide synthesis genes in the ileum vs control (in words): not significantly different

From paper PMC12010937, “Evaluation of FXR Activity in Pollutants Identified in Sewage Sludge and Subsequent in Vitro and in Vivo Characterization of Metabolic Effects of Triphenyl Phosphate” (Environmental Health Perspectives, 2025)
